Measurements: patent US9290511B2, “Thieno-pyrimidines, useful as potassium channel inhibitors” (XENTION LIMITED, priority 2011, dated 2016)

Each molecule was assayed against T1, Kir3.1/3.4 (Rattus norvegicus, UniProt P48548+P63251) (assay: Kir3.1/3.4 Electrophysiology Method (manual whole-cell patch clamp)). Details: Electrophysiology Method (TABLE 1).
T1 construct: expressed in transfected cells
T1 sequence (P63251 1-501): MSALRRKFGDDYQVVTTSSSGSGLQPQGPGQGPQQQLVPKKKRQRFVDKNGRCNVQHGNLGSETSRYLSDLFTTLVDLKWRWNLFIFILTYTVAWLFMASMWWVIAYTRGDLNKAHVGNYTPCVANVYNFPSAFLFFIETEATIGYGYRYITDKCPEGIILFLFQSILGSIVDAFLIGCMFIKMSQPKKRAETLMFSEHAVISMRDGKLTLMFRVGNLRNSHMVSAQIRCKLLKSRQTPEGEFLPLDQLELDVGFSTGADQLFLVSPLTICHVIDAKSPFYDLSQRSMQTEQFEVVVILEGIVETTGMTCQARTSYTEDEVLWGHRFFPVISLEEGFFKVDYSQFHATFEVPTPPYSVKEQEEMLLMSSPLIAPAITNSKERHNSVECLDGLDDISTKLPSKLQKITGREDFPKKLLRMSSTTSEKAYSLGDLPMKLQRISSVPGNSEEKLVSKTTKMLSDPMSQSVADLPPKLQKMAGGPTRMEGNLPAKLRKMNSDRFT
T1 sequence (P48548 1-419): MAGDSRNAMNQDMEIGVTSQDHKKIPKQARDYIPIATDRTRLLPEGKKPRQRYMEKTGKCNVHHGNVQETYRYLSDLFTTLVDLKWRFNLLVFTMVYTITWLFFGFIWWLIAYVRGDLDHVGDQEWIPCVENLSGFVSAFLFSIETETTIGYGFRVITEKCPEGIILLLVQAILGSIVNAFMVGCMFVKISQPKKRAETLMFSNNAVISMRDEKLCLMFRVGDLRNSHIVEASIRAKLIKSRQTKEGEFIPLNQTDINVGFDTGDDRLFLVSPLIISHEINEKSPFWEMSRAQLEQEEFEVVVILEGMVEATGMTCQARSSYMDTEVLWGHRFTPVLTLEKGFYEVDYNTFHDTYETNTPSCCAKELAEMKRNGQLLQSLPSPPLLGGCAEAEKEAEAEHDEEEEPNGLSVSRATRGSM
Format: cell-based
Summary of the method: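 Manual whole-cell patch clamp on HEK293 cells stably expressing rat Kir3.1/3.4, with GTPγS in the pipette. Cells were held at −60 mV and stepped to +60 mV, then ramped to −140 mV every 10 s. Steady-state inhibition at −140 mV was measured after subtracting leak recorded in zero-K+ bath.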
Work on CN1CCN(c2nc(N3CCC(CNCCC4CCCN4C)CC3)c3c(-c4ccccc4)csc3n2)CC1 (stereo not drawn) [Example 114] yielded an IC50 of 500 to 3000 nM.
Molecule CN1CCN(c2nc(N3CCC(CN4CCCC(N(C)C)C4)CC3)c3c(-c4ccccc4)csc3n2)CC1 (stereo not drawn) [Example 115] has an IC50 of under 500 nM.
CN1CCN(c2nc(N3CCC(CNC4CCC4)CC3)c3c(-c4ccccc4)csc3n2)CC1 [Example 116] showed an IC50 of under 500 nM.
With CN(C)C1CCCN(CC2CCN(c3nc(NCCN4CCCC4)nc4scc(-c5ccccc5)c34)CC2)C1 (stereo not drawn) [Example 117] the IC50 was under 500 nM.
COCCNc1nc(N2CCC(CN(C)C3CCN(C)C3)CC2)c2c(-c3ccccc3)csc2n1 (stereo not drawn) [Example 118] gave an IC50 of under 500 nM.
In the case of CN1CCC(N(C)CC2CCN(c3nc(NCC4CC4)nc4scc(-c5ccccc5)c34)CC2)C1 (stereo not drawn) [Example 119], the IC50 is reported as under 500 nM.
Work on CN1CCC(N(C)CC2CCN(c3nc(N4CCC(C(N)=O)C4)nc4scc(-c5ccccc5)c34)CC2)C1 (stereo not drawn) [Example 120, 1-[4-[4-[[methyl-(1-methylpyrrolidin-3-yl)amino]methyl]-1-piperidyl]-5-phenyl-thieno[2,3-d]pyrimidin-2-yl]pyrrolidine-3-carboxamide] yielded an IC50 of under 500 nM.
Work on CN1CCC(N(C)CC2CCN(c3nc(N(C)CC(N)=O)nc4scc(-c5ccccc5)c34)CC2)C1 (stereo not drawn) [Example 121] yielded an IC50 of under 500 nM.
For COCCN1CCN(c2nc(N3CCC(CN(C)C4CCN(C)C4)CC3)c3c(-c4ccccc4)csc3n2)CC1 (stereo not drawn) [Example 122], the IC50 was under 500 nM.
Molecule CN(C)C1CCCN(CC2CCN(c3nc(N4CCC(C(N)=O)C4)nc4scc(-c5ccccc5)c34)CC2)C1 (stereo not drawn) [Example 123] has an IC50 of under 500 nM.
COCCNc1nc(N2CCC(CN3CCCC(N(C)C)C3)CC2)c2c(-c3ccccc3)csc2n1 (stereo not drawn) [Example 124] gave an IC50 of under 500 nM.
O=C1CN(c2nc(N3CCC(CNC4CCC4)CC3)c3c(-c4ccccc4)csc3n2)CCN1 [Example 125] gave an IC50 of 500 to 3000 nM.
With COCCNc1nc(N2CCC(CNC3CCC3)CC2)c2c(-c3ccccc3)csc2n1 [Example 126] the IC50 was under 500 nM.
Molecule NC(=O)C1CCN(c2nc(N3CCC(CNC4CCC4)CC3)c3c(-c4ccccc4)csc3n2)C1 (stereo not drawn) [Example 128] has an IC50 of 500 to 3000 nM.
For CN1CCC(N(C)CC2CCN(c3nc(N4CCCCC4C(N)=O)nc4scc(-c5ccccc5)c34)CC2)C1 (stereo not drawn) [Example 129], the IC50 was 500 to 3000 nM.
CN1CCC(N(C)CC2CCN(c3nc(N4CCCC4C(N)=O)nc4scc(-c5ccccc5)c34)CC2)C1 (stereo not drawn) [Example 130] showed an IC50 of 500 to 3000 nM.
Work on CNC(=O)c1sc2ncnc(N3CCC(CN(C)C4CCN(C)C4)CC3)c2c1-c1ccccc1 (stereo not drawn) [Example 131] yielded an IC50 of 3000 to 10000 nM.
CC(C)NC(=O)c1sc2ncnc(N3CCC(CN(C)C4CCN(C)C4)CC3)c2c1-c1ccccc1 (stereo not drawn) [Example 132] was tested, and the IC50 was under 500 nM.
With CC(C)c1c(C(=O)N(C)C)sc2ncnc(N3CCC(COCCN4CCCC4)CC3)c12 [Example 133] the IC50 was 500 to 3000 nM.
CNC(=O)c1sc2ncnc(N3CCC(COCCN4CCCC4)CC3)c2c1C(C)C [Example 134] gave an IC50 of 500 to 3000 nM.
With CN1CCC(N(C)CC2CCN(c3ncnc4sc(C(=O)N(C)C)c(-c5ccccc5)c34)CC2)C1 (stereo not drawn) [Example 136] the IC50 was 500 to 3000 nM.
In the case of CC(C)NC(=O)c1sc2ncnc(N3CCC(COCCN4CCCC4)CC3)c2c1-c1cccc(F)c1 [Example 137], the IC50 is reported as under 500 nM.
CN(C)C(=O)c1sc2ncnc(N3CCC(COCCN4CCCC4)CC3)c2c1-c1cccc(F)c1 [Example 138] showed an IC50 of under 500 nM.
For CC(C)NC(=O)c1sc2ncnc(N3CCC(COCCN4CCCC4)CC3)c2c1-c1ccccc1 [Example 139, N-isopropyl-5-phenyl-4-[4-(2-pyrrolidin-1-ylethoxymethyl)-1-piperidyl]thieno[2,3-d]pyrimidine-6-carboxamide], the IC50 was under 500 nM.
For CNC(=O)c1sc2ncnc(N3CCC(COCCN4CCCC4)CC3)c2c1-c1ccccc1 [Example 141], the IC50 was under 500 nM.
With c1ccc(-c2csc3nccc(N4CCC(COCCN5CCCC5)CC4)c23)cc1 [Example 142, 3-phenyl-4-[4-(2-pyrrolidin-1-ylethoxymethyl)-1-piperidyl]thieno[2,3-b]pyridine] the IC50 was under 500 nM.
Molecule Brc1sc2nccc(N3CCC(COCCN4CCCC4)CC3)c2c1-c1ccccc1 [Example 143] has an IC50 of under 500 nM.
With N#Cc1sc2nccc(N3CCC(COCCN4CCCC4)CC3)c2c1-c1ccccc1 [Example 144] the IC50 was under 500 nM.
c1ccc(-c2csc3nc(N4CCN(CCN5CCCC5)CC4)ncc23)cc1 [Example 145] showed an IC50 of under 500 nM.
With CN1CCCC1CCNCC1CCN(c2ncc3c(-c4ccccc4)csc3n2)CC1 (stereo not drawn) [Example 146] the IC50 was under 500 nM.
Work on NC(=O)[C@H]1CCCN1CCN1CCN(c2ncc3c(-c4ccccc4)csc3n2)CC1 [Example 147] yielded an IC50 of under 500 nM.
In the case of c1ccc(-c2csc3nc(N4CCC(COCCN5CCCC5)CC4)ncc23)cc1 [Example 148, 5-phenyl-2-[4-(2-pyrrolidin-1-ylethoxymethyl)-1-piperidyl]thieno[2,3-d]pyrimidine], the IC50 is reported as under 500 nM.
Molecule c1ccc(-c2csc3nc(N4CCC(COCCN5CCCC5)C4)ncc23)cc1 (stereo not drawn) [Example 149] has an IC50 of under 500 nM.
Work on NC(=O)[C@@H]1CCN(CCN2CCN(c3ncc4c(-c5ccccc5)csc4n3)CC2)C1 [Example 150] yielded an IC50 of 500 to 3000 nM.
In the case of F[C@@H]1CCN(CCOCC2CCN(c3ncc4c(-c5ccccc5)csc4n3)CC2)C1 [Example 151], the IC50 is reported as under 500 nM.
Work on Fc1ccc(-c2csc3nc(N4CCC(COCCN5CCCC5)CC4)ncc23)cc1 [Example 152] yielded an IC50 of under 500 nM.
NC(=O)C1CCN(CCOCC2CCN(c3ncc4c(-c5ccccc5)csc4n3)CC2)C1 (stereo not drawn) [Example 153] gave an IC50 of under 500 nM.
Work on c1ccc(-c2csc3nc(N4CCC(COCCN5CC6CC5CO6)CC4)ncc23)cc1 (stereo not drawn) [Example 154] yielded an IC50 of under 500 nM.
With CC(=O)Nc1sc2nc(N3CCC(COCCN4CCCC4)CC3)ncc2c1-c1ccccc1 [Example 155, N-[5-phenyl-2-[4-(2-pyrrolidin-1-ylethoxymethyl)-1-piperidyl]thieno[2,3-d]pyrimidin-6-yl]acetamide] the IC50 was 500 to 3000 nM.
O=C1CCCN1c1sc2nc(N3CCC(COCCN4CCCC4)CC3)ncc2c1-c1ccccc1 [Example 156] was tested, and the IC50 was under 500 nM.
Molecule CC(C)c1csc2nc(N3CCC(COCCN4CCCC4)CC3)ncc12 [Example 157] has an IC50 of under 500 nM.
In the case of C(#Cc1ncnc2scc(-c3ccccc3)c12)COCCN1CCCC1 [Example 161, 5-Phenyl-4-[3-(2-pyrrolidinyl-1-ylethoxy)prop-1-ynyl]thieno[2,3-d]pyrimidine], the IC50 is reported as under 500 nM.
For CC(=O)Nc1sc2ncnc(N3CCC(COCCN4CCCC4)CC3)c2c1-c1ccccc1 [Example 162, N-[5-phenyl-4-[4-(2-pyrrolidin-1-ylethoxymethyl)-1-piperidyl]thieno[2,3-d]pyrimidin-6-yl]acetamide], the IC50 was under 500 nM.
With O=C1CCCN1c1sc2ncnc(N3CCC(COCCN4CCCC4)CC3)c2c1-c1ccccc1 [Example 163] the IC50 was under 500 nM.
With c1ccc(-c2csc3ncnc(N4[C@@H]5CC[C@H]4CC(COCCN4CCCC4)C5)c23)cc1 (stereo partly drawn) [Example 164, 5-phenyl-4-[(1S,5R)-3-(2-pyrrolidin-1-ylethoxymethyl)-8-azabicyclo[3.2.1]octan-8-yl]thieno[2,3-d]pyrimidine] the IC50 was under 500 nM.
Molecule OCC1CC2CCC(C1)N2c1nc(N2CCOCC2)c2c(-c3ccccc3)csc2n1 (stereo not drawn) [Example 165, [8-(4-morpholino-5-phenyl-thieno[2,3-d]pyrimidin-2-yl)-8-azabicyclo[3.2.1]octan-3-yl]methanol] has an IC50 of 500 to 3000 nM.
CN1CCCC1CCNC(=O)C1CCN(c2ncnc3scc(-c4ccccc4)c23)CC1 (stereo not drawn) [Example 166, N-[2-(1-methylpyrrolidin-2-yl)ethyl]-1-(5-phenylthieno[2,3-d]pyrimidin-4-yl)piperidine-4-carboxamide] showed an IC50 of 500 to 3000 nM.
For N#Cc1sc2ncnc(N3CCC(COCCN4CCCC4)CC3)c2c1-c1ccccc1 [Example 167, 5-phenyl-4-[4-(2-pyrrolidin-1-ylethoxymethyl)-1-piperidyl]thieno[2,3-d]pyrimidine-6-carbonitrile], the IC50 was under 500 nM.
With c1ccc(CNc2sc3ncnc(N4CCC(COCCN5CCCC5)CC4)c3c2-c2ccccc2)cc1 [Example 168, N-benzyl-5-phenyl-4-[4-(2-pyrrolidin-1-ylethoxymethyl)-1-piperidyl]thieno[2,3-d]pyrimidin-6-amine] the IC50 was under 500 nM.
For CN(C)C1CCN(c2ncnc3scc(-c4ccccc4)c23)CC1 [Example 169], the IC50 was 500 to 3000 nM.
CCc1nc(N2CCC(N(C)C)CC2)c2c(-c3ccccc3)csc2n1 [Example 170] showed an IC50 of 500 to 3000 nM.
OCCNc1nc(N2CCC(CCO)CC2)c2c(-c3ccc(F)cc3)csc2n1 [Example 171] showed an IC50 of 500 to 3000 nM.
COCC1CCN(c2nc(NCCN(C)C)nc3scc(-c4ccccc4)c23)CC1 [Example 173] showed an IC50 of under 500 nM.
COCC1CCN(c2nc(N3CCN(C)CC3)nc3scc(-c4ccccc4)c23)CC1 [Example 174] gave an IC50 of under 500 nM.
